Here are results for three compounds from patent US20230257347A1 (priority 2020, published 2023).

Test [1] deals with 5-Hydroxytryptamine (Serotonin) Receptor 2B (5-HT2B) (Homo sapiens, UniProt P41595). The test is described as follows: Calcium flux secondary messenger assay, 5-HT2B. Format: cell-based.
Test [2] deals with 5-Hydroxytryptamine (Serotonin) Receptor 2A (5-HT2A) (Homo sapiens, UniProt P28223). The test is described as follows: Calcium flux secondary messenger assay, 5-HT2A. Format: cell-based. (Calcium flux is commonly read through the fluorescence of an indicator in the cells.)
For test [3], the target named is T1, Cyclooxygenase 1 (COX1) (Homo sapiens, UniProt P23219).
T1 construct: purchased BPS Bioscience
Nature of the test: Enzymatic assay, COX1. Format: biochemical.

Test [4] deals with T2, Monoamine oxidase type A (MAOA) (Homo sapiens, UniProt P21397).
T2 construct: purchased Sigma
T2 sequence (P21397 1-527): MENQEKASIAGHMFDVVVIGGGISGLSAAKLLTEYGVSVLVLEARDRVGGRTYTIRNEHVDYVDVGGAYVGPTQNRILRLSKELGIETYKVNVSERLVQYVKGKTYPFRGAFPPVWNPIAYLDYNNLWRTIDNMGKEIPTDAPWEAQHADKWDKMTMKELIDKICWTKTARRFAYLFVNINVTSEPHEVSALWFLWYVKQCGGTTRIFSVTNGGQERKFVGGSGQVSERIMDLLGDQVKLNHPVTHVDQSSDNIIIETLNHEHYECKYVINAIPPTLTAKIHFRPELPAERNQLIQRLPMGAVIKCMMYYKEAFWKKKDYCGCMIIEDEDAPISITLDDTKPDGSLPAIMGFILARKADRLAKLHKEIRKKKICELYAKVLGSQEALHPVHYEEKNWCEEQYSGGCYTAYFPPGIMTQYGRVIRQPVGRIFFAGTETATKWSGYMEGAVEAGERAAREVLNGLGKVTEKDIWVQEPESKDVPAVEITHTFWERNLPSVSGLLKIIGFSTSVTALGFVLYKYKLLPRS
The test is described as follows: Enzymatic assay, MAOA (kynuramine substrate). Format: biochemical.

In test [5] the target is T3, Voltage-gated L-type calcium channel (CAV1.2) (Homo sapiens, UniProt Q13936).
T3 construct: expressed in transfected cells
The test is described as follows: Ion channel assay, CAV1.2. Format: cell-based.

The target in test [6] is T4, Lymphocyte Cell-Specific Protein-Tyrosine Kinase (LCK) (Homo sapiens, UniProt P06239).
T4 construct: made in house; host or cells: E. coli BL21-derived host (T7 phage) or HEK-293
The test is described as follows: KINOMEscan binding assay, LCK.

The target of test [7] is T5, hERG (Homo sapiens, UniProt Q12809).
T5 construct: expressed in transfected cells
Nature of the test: Ion channel assay, hERG. Format: cell-based.

Test [8] concerns the target T6, Adrenergic Receptor α2A (ADRA2A) (Homo sapiens, UniProt P08913).
T6 sequence (P08913 1-465): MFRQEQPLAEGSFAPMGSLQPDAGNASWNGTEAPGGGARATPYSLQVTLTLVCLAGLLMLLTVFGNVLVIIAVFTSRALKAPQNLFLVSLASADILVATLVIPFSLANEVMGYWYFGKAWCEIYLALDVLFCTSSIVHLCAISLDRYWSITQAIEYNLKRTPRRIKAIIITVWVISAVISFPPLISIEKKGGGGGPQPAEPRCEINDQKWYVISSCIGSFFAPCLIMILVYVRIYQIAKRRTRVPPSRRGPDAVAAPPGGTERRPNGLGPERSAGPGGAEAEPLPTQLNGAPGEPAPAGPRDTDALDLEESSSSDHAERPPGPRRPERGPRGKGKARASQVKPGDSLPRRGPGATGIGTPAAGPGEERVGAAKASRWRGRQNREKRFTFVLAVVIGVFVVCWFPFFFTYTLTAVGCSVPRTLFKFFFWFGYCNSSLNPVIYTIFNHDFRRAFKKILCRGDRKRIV
Nature of the test: cAMP assay, ADRA2A. The class given is cell-based. In general terms: Changes in cAMP serve as a functional read-out for many G protein-coupled receptors.

Test [9] addresses 5-Hydroxytryptamine (Serotonin) Receptor 1B (5-HT1B) (Homo sapiens, UniProt P28222). The test is described as follows: cAMP secondary messenger assay, 5-HT1B. The class given is cell-based.
The target of test [10] is T7, Insulin Receptor (tyrosine kinase) (INSR) (Homo sapiens, UniProt P06213).
T7 construct: made in house; host or cells: E. coli BL21-derived host (T7 phage) or HEK-293
Nature of the test: KINOMEscan binding assay, INSR.

Test [11] concerns the target T8, Nuclear Hormone Glucocorticoid Receptor (GR) (Homo sapiens, UniProt P04150).
T8 sequence (P04150 1-777): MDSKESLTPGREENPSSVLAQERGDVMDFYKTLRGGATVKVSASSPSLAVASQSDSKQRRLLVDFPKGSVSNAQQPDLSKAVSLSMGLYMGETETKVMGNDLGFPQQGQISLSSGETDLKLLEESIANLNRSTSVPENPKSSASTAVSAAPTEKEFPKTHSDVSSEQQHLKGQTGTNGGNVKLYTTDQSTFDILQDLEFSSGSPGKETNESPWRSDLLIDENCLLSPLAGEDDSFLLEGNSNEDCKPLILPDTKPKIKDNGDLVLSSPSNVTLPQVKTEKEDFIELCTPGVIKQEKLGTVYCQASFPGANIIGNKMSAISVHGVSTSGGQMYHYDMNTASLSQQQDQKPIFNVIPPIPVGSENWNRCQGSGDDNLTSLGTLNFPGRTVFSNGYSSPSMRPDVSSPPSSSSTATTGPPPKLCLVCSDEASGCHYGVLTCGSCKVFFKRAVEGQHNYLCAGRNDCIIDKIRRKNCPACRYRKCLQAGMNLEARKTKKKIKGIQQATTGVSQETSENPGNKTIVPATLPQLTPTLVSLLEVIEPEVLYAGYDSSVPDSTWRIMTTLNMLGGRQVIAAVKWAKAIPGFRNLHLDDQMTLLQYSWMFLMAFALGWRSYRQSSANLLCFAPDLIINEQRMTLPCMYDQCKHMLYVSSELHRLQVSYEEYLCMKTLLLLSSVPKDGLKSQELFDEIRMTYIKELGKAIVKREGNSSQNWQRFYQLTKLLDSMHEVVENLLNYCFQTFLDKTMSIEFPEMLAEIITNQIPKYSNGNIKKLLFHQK
The test is described as follows: NHR Protein Interaction assay, GR. Format: cell-based.

The target in test [12] is T9, Vascular endothelial growth factor receptor 2 (KDR tyrosine kinase) (VEGFR2) (Homo sapiens, UniProt P35968).
T9 construct: made in house; host or cells: E. coli BL21-derived host (T7 phage) or HEK-293
The test is described as follows: biochemical. The class given is binding.

Test [13] has as its target Cannabinoid Receptor 2 (CNR2) (Homo sapiens, UniProt P34972). The test is described as follows: cAMP assay, CNR2. Format: cell-based.
Setting [14] is: read-out: MAOA IC50, Table 10, Source: Original data.

As a reminder, the EC50 is the midpoint of the concentration-response curve. The term IC50 denotes the concentration needed to halve the response being measured.

Counter-ions that a name gives are not always drawn. Like-named read-outs stand apart in the source and are kept apart here.

T7 sequence (P06213 28-1382): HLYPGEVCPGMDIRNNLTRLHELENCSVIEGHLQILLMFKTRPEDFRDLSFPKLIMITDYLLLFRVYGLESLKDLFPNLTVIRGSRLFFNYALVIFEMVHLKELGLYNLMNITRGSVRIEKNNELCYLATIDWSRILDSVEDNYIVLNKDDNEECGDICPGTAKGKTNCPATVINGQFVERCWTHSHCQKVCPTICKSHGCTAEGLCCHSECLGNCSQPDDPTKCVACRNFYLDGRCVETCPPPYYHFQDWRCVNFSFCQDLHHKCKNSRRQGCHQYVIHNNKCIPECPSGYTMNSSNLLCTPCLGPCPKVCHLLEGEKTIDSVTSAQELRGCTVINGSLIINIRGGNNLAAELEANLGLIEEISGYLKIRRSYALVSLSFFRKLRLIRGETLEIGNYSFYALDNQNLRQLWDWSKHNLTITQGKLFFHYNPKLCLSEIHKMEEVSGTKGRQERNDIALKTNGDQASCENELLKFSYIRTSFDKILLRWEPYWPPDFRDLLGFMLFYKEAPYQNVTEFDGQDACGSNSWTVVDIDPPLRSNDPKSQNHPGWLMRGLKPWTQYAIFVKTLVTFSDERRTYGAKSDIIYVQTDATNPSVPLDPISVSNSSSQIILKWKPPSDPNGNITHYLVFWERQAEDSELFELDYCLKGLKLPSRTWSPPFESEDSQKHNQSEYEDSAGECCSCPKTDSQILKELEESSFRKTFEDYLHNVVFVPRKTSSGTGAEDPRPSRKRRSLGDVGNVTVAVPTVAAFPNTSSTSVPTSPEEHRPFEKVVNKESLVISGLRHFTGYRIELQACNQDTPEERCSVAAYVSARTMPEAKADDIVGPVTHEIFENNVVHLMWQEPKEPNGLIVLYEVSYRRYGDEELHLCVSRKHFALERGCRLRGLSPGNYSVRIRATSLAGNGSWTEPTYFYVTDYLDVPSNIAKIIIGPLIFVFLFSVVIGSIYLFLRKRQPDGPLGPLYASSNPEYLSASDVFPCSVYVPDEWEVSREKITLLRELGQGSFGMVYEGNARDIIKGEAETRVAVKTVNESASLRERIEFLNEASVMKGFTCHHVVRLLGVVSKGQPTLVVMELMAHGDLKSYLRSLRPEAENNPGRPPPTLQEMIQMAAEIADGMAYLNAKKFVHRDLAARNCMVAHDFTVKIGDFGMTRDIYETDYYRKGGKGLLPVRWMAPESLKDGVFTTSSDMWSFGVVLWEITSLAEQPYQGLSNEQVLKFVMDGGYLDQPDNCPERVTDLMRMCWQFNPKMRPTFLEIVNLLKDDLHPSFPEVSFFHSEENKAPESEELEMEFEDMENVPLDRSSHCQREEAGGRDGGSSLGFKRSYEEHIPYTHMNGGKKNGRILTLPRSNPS
5-Hydroxytryptamine (Serotonin) Receptor 2A (5-HT2A), sequence (P28223 whole entry, looked up): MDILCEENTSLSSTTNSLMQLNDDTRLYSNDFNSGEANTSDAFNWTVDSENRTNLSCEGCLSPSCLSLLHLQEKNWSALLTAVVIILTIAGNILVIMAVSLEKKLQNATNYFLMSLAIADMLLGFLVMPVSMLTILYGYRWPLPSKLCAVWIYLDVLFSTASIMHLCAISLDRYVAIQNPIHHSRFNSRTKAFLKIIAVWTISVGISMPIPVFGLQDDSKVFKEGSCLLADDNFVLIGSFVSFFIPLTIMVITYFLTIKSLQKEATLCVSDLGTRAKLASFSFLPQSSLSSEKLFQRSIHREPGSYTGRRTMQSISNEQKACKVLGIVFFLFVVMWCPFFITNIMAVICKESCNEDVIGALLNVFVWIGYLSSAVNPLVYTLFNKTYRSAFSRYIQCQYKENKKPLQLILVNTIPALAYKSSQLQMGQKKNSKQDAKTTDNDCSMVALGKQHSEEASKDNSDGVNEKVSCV
5-Hydroxytryptamine (Serotonin) Receptor 2B (5-HT2B), sequence (P41595 whole entry): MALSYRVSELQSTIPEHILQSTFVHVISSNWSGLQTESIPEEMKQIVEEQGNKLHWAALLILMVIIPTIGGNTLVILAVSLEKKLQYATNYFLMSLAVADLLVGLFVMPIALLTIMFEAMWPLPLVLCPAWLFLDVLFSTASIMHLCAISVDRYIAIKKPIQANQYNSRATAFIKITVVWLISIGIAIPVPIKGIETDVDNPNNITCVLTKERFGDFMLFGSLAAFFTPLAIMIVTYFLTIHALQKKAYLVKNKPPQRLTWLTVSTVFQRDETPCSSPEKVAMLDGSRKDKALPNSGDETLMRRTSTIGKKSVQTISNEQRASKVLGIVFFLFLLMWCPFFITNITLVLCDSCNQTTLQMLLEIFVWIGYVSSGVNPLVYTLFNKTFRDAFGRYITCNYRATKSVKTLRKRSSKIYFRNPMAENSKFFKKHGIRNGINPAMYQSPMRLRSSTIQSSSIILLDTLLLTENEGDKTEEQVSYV
5-Hydroxytryptamine (Serotonin) Receptor 1B (5-HT1B), sequence (P28222 whole entry): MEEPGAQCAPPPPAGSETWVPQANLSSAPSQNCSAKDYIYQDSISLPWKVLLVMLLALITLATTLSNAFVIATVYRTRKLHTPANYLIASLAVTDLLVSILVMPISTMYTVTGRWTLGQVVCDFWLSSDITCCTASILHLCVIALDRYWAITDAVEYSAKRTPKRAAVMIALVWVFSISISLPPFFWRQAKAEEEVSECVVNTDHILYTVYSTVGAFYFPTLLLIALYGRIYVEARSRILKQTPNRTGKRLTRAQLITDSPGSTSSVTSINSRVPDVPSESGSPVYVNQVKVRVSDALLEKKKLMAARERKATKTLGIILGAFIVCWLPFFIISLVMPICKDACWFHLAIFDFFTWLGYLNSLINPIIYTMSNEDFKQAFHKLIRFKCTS
T9 sequence (P35968 20-1356): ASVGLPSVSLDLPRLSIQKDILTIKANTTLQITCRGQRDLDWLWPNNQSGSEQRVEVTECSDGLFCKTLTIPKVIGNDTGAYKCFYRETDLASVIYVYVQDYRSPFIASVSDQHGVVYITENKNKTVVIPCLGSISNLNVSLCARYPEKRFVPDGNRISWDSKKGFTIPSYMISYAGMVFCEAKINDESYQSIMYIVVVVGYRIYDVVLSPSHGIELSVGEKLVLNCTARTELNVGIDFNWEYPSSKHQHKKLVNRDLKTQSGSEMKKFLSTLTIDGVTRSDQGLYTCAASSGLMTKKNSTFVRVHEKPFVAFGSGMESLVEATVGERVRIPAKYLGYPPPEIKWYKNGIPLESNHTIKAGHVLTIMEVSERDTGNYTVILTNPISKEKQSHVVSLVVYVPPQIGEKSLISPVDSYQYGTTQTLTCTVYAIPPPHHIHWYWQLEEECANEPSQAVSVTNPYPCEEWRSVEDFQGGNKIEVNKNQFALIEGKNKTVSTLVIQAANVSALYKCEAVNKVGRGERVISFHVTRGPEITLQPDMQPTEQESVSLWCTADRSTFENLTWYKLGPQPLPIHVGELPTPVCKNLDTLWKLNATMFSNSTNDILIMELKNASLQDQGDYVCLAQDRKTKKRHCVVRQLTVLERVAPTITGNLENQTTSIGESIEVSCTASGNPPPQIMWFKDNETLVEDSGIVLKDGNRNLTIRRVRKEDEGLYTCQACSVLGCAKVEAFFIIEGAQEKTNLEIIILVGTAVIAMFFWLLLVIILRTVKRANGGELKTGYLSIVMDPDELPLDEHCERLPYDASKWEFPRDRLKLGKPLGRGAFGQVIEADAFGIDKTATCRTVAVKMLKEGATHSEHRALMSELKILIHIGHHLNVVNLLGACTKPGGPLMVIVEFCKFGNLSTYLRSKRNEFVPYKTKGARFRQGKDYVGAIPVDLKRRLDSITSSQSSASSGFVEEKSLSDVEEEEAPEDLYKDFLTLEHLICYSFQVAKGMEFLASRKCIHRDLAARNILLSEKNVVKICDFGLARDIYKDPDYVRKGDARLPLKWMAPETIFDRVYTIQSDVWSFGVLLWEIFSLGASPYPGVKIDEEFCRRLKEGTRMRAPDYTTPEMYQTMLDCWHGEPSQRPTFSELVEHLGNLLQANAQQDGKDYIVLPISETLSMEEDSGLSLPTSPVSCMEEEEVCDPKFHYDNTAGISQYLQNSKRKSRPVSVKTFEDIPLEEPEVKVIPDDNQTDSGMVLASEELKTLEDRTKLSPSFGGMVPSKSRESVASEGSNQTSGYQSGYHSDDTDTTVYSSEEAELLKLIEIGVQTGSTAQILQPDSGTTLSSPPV
T4 sequence (P06239 whole entry): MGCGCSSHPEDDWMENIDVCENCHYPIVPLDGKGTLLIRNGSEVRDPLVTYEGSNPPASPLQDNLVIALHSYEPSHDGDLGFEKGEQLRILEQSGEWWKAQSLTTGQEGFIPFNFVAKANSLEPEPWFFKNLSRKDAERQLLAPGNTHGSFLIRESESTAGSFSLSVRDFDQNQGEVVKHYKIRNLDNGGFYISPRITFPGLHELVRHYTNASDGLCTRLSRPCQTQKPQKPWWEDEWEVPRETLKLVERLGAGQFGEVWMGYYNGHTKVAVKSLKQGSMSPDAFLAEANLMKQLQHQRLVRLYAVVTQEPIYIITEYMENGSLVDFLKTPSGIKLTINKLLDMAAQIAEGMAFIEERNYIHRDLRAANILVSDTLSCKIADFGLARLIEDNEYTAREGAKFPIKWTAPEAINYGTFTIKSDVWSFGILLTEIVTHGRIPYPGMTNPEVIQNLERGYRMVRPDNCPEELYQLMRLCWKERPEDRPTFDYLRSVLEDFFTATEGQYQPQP
Cannabinoid Receptor 2 (CNR2), sequence (P34972 whole entry): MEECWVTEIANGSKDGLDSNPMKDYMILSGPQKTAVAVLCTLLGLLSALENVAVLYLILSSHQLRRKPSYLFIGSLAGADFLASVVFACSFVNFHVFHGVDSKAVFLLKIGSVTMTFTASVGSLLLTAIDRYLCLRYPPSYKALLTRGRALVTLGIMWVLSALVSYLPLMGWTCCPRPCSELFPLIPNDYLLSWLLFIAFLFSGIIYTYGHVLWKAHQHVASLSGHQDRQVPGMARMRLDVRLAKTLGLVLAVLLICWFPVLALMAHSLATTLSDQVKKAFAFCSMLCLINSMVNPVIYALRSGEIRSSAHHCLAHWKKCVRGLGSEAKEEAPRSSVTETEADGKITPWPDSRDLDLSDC

For the compound `CNC(C)C(=O)c1c[nH]c2ccc(Cl)cc12` (stereo not shown) [BK-5Cl-NM-AMT, 1-(5-chloro-1H-indol-3-yl)-2-(methylamino) propan-1-one hydrochloride], the EC50 in test [1], in test [2], in test [8], in [9], in test [11] and in test [13] was more than 10 µM throughout. For the same compound, the half-inhibitory concentration (IC50) in test [1] was 0.0921 µM; in [2], more than 10 µM; in test [3] it was more than 10 µM; in test [4] it was more than 10 µM; in test [4] (setting [14]) it was more than 10 µM; in test [5] it was more than 10 µM. For the same compound, the 50% inhibitory concentration (IC50) in test [6], in test [7], in test [8], in test [9], in test [10] and in test [11] was more than 10 µM each time. Further, the half-maximal inhibitory concentration (IC50) in [12] and in test [13] was more than 10 µM each time.
In the case of `CNC(C)C(=O)c1c[nH]c2ccc(Br)cc12` (stereo not shown) [BK-5Br-NM-AMT, 1-(5-bromo-1H-indol-3-yl)-2-(methylamino) propan-1-one hydrochloride], the EC50 in [1], in [2], in [8], in [9], in test [11] and in test [13] was more than 10 µM in each case. Also, the IC50 in test [1] is 0.0447 µM; in test [2], 8.63 µM; in test [3], more than 10 µM; in test [4] it was more than 10 µM; in test [4] (setting [14]), more than 10 µM; in [5], more than 10 µM. Besides, the half-inhibitory concentration (IC50) in test [6], in [7], in test [8], in [9], in test [10] and in [11] was more than 10 µM in each case. Further, the IC50 in test [12] and in test [13] was more than 10 µM each time.
As to `CNC(C)C(=O)c1c[nH]c2ccc(F)cc12` (stereo not shown) [BK-5F-NM-AMT, 1-(5-Fluoro-1H-indol-3-yl)-2-(methylamino) propan-1-one hydrochloride], the half-maximal effective concentration (EC50) in test [1], in test [2], in test [8], in test [9], in test [11] and in [13] was more than 10 µM each time. Besides, the IC50 in test [1] was 0.587 µM; in test [2], more than 10 µM; in test [3] it was more than 10 µM; in [4], more than 10 µM; in test [4] (setting [14]) it was more than 10 µM; in [5] it was more than 10 µM. The half-maximal inhibitory concentration (IC50) in [6], in test [7], in test [8], in test [9], in test [10] and in test [11] was more than 10 µM in each case. Also, the IC50 in test [12] and in test [13] was more than 10 µM throughout. Also, the “MAOA inhibition (MAOI or not, in words)” value in [4] (original data) is given as “is not an MAOI”.
